Data published in ChEMBL document CHEMBL1201862, “PubChem BioAssay data set” (2004).
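How tested: cells in 96-well plates exposed to compound for 48 hours at five concentrations. GI50 = concentration required for 50% inhibition of growth.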 Active and inactive are the calls of the source. No stated cut-off is given here; in the data, active = GI50 up to about 1.1 µM and inactive = higher.

How the values were obtained:
Test in all cases: growth of human tumour cells (NCI), 48 h
[1] = test system: KM-20L2
[2] = test system: DLD-1
[3] = test system: RXF 631
[4] = test system: DMS-273
[5] = test system: HOP-18
[6] = test system: DMS-114
[7] = test system: LXFL 529
[8] = test system: SNB-78
[9] = test system: XF498

Measured: GI50

COc1cc(/C=C2/C(=O)N(C(=O)OCc3ccccc3)C(Cc3cc(OC)c(OC)c(C)c3OC)C(=O)N2Cc2ccccc2)c(OC)c(C)c1OC (stereo not given)
inactive: [1] > 100 µM | [2] > 100 µM | [3] > 100 µM | [4] 40.6 µM | [5] 95.3 µM | [6] 54.6 µM | [7] 9.42 µM

CS/C(=N/C(=O)c1ccccc1)SCCS/C(=N\C(=O)c1ccccc1)SC
inactive: [1] > 100 µM | [2] > 100 µM | [8] 66.8 µM | [3] > 100 µM | [4] > 100 µM | [6] 90.4 µM | [9] > 100 µM | [7] > 100 µM

C=CCNC(=O)ON1C(=O)CCC1=O
inactive: [1] > 100 µM | [2] > 100 µM | [8] > 100 µM | [4] > 100 µM | [5] > 100 µM | [6] > 100 µM | [7] > 100 µM

COc1ccc(C(=O)O/N=C2/CCC/C2=C\c2ccccc2)cc1
inactive: [1] > 100 µM | [2] > 100 µM | [8] > 68.5 µM | [3] > 100 µM | [4] > 100 µM | [5] > 100 µM | [6] > 100 µM | [9] > 100 µM | [7] > 100 µM

CCOC(=O)/C(=C\c1ccc(O)c(OC)c1)C(=O)c1ccccc1
inactive: [1] > 41.7 µM | [2] 17.8 µM | [8] 2.56 µM | [5] 38.9 µM | [9] 27.6 µM | [7] 10.6 µM

O=C1CCCCC1CN1CCCC1 (stereo not given)
inactive: [1] > 100 µM | [2] > 100 µM | [8] > 100 µM | [4] > 100 µM | [6] > 100 µM | [9] > 100 µM | [7] > 100 µM

CC(=O)O[C@H]1CCC2[C@@H]3CCC4C(=O)c5oncc5C[C@]4(C)C3CC[C@@]21C (stereo not given in full)
inactive: [1] > 100 µM | [2] > 100 µM | [8] 49 µM | [4] > 100 µM | [6] > 100 µM | [9] > 100 µM | [7] > 100 µM

Cc1ccc(Sc2cc([N+](=O)[O-])cc(Sc3ccc(C)cc3)c2Sc2ccc(C)cc2)cc1
inactive: [1] > 100 µM | [2] > 100 µM | [8] > 100 µM | [4] > 100 µM | [6] > 100 µM | [9] > 100 µM | [7] > 100 µM

COC(=O)C1=C(SC)SC2(C(=O)OC)C3C=C(C)C4C(N13)C42C(=O)OC (stereo not given)
inactive: [1] > 100 µM | [2] > 100 µM | [4] > 100 µM | [6] > 100 µM | [7] > 100 µM

CC(C)c1cccc(C(C)C)c1N1C(=O)C(=O)C(c2nc3ccccc3o2)C(=O)C1=O
inactive: [1] 79.1 µM | [2] 31.6 µM | [8] > 100 µM | [3] > 100 µM | [4] 68.2 µM | [6] 24.5 µM | [9] 38.5 µM | [7] 42.2 µM

COC1=CC(O)(CC(N)=O)c2ccccc2C1=O (stereo not given)
inactive: [1] > 100 µM | [2] > 100 µM | [8] > 100 µM | [3] > 100 µM | [4] > 100 µM | [5] > 100 µM | [6] > 100 µM | [9] > 100 µM | [7] > 100 µM

C=C(CCCO)[C@@H]1CC[C@@](C)(O)[C@H]1C
inactive: [1] > 100 µM | [2] > 10 µM | [8] > 100 µM | [3] > 100 µM | [4] > 100 µM | [5] > 100 µM | [6] > 100 µM | [9] > 100 µM | [7] > 100 µM

COc1cc(/C=C2\C(=O)N(C(=O)Cc3ccccc3)N=C2C)cc(OC)c1OC
inactive: [2] > 100 µM | [8] > 100 µM | [4] > 100 µM | [5] > 100 µM | [6] > 100 µM | [9] > 100 µM
